# Measurements: the RepoRT retention time repository (doi:10.1021/acs.analchem.2c02893)
# Assay: RP, Thermo Scientific Acclaim RSLC 120 C18, 100 × 2.1 mm, 2.2 µm, 30 °C, 0.2 mL/min, estimated dead time 1.1 min; A: 90% water + 10% methanol + 0.01% formic acid + 5 mM ammonium formate, pH 3.61; B: methanol + 0.01% formic acid + 5 mM ammonium formate, pH 3.61; gradient (min/%B) 0/1 1/1 2/39 13/99.9 15/99.9 15.1/1 20.1/1
# Details: stereoisomer not certain
row,SMILES,LC retention time [min]
1,CCCCc1c(C)nc(NCC)[nH]c1=O [Ethirimol],8
2,O=C(NC12CC3CC(CC(C3)C1)C2)c1nn(Cc2ccc(F)cc2)c2ccccc12 [FUB-AKB48],13
3,CCCCC(=O)N(Cc1ccc(-c2ccccc2-c2nn[nH]n2)cc1)C(C(=O)O)C(C)C (stereo unspecified) [Valsartan],9.21
4,CSc1nc(NC(C)C)nc(NC(C)C)n1 [Prometryn],10.1
5,Clc1ccc(C(OCCN2CCCCC2)c2ccccc2)cc1 (stereo unspecified) [Cloperastine],8.46
6,CCCCCCCCc1ccc(OCCOCCO)cc1 [Octylphenol diethoxylates (OP2EO)_NH4 adduct],14.1
7,CCCc1nn(C)c2c(=O)[nH]c(-c3cc(S(=O)(=O)N4CCN(CC)CC4)ccc3OCC)nc12 [HomoSildenafil],7.84
8,O=C1CN=C(c2ccccc2Cl)c2cc(Cl)ccc2N1 [Delorazepam],8.81
9,COC(=O)Nc1nc2ccccc2[nH]1 [Carbendazim],5.46
10,CC12CCC(=O)C=C1C1CC1C1C2CCC2(C)C1C1CC1C21CCC(=O)O1 (stereo unspecified) [Drospirenone],9.56
11,CON(C)C(=O)Nc1ccc(Br)cc1 [Metobromuron],8.15
12,Cc1nnc2n1-c1ccc(Cl)cc1C(c1ccccc1)=NC2O (stereo unspecified) [Alprazolam-Hydroxy],7.81
13,COc1ccc2c3c1OC1C(O)C=CC4C(C2)N(C)CCC341 (stereo unspecified) [Codeine],3.4
14,CCCc1nc(C)c2c(=O)[nH]c(-c3cc(S(=O)(=O)N4CCCCC4)ccc3OCC)nn12 [Vardenafil-Pseudo],10.6
15,CCOP(=S)(OCC)SCS(=O)C(C)(C)C (stereo unspecified) [Terbufos-sulfoxide],9
16,CNC(CC(C)C)C(=O)NC1C(=O)NC(CC(N)=O)C(=O)NC2C(=O)NC3C(=O)NC(C(=O)NC(C(=O)O)c4cc(O)cc(O)c4-c4cc3ccc4O)C(O)c3ccc(c(Cl)c3)Oc3cc2cc(c3OC2OC(CO)C(O)C(O)C2OC2CC(C)(N)C(O)C(C)O2)Oc2ccc(cc2Cl)C1O (stereo unspecified) [Vancomycin],3.26
17,CC(C)(C)c1ccc(CCOc2ncnc3ccccc23)cc1 [Fenazaquin],13.7
18,O=C(O)c1cc(N=Nc2ccc(S(=O)(=O)Nc3ccccn3)cc2)ccc1O [Sulfasalazine],6.61
19,CCOC(=O)c1cn2nc(OP(=S)(OCC)OCC)cc2nc1C [Pyrazophos],11.4
20,CNc1c(C)n(C)n(-c2ccccc2)c1=O [Methylaminophenazone (4-)],4.74
21,Cn1sc(Cl)cc1=O [CMI (5-Chloro-2-methyl-4-isothiazolin-3-on)],4.51

row,SMILES,LC retention time [min]
1,O=C(NC(=O)c1c(F)cccc1F)Nc1cc(Cl)c(OC(F)(F)C(F)F)c(Cl)c1 [Hexaflumuron],11.8
2,CCc1nn(CCCN2CCN(c3cccc(Cl)c3)CC2)c(=O)n1CCOc1ccccc1 [Nefazodone],9.95
3,CCC(C)(C)C(=O)OC1CC(C)C=C2C=CC(C)C(CCC3CC(O)CC(=O)O3)C21 (stereo unspecified) [Simvastatin],12.6
4,c1ccc(C2(N3CCCCC3)CCCCC2)cc1 [Phencyclidine],5.74
5,CCc1nn(C)c(C(=O)NCc2ccc(Oc3ccc(C)cc3)cc2)c1Cl [Tolfenpyrad],12.4
6,CCC(Oc1ccc(F)c(C(F)(F)F)c1)C(=O)NCc1ccccc1 (stereo unspecified) [Beflubutamide],10.6
7,CC1(c2ccc(Oc3ccccc3)cc2)OC(=O)N(Nc2ccccc2)C1=O (stereo unspecified) [Famoxadone],11
8,CCOP(=S)(OCC)SCCS(=O)CC (stereo unspecified) [Disulfoton-sulfoxide],7.86
9,Cc1cc(C)cc(OCC2CNC(=O)O2)c1 (stereo unspecified) [Metaxalone],7.86
10,C#CC1(O)CCC2C3CCC4=CC(=O)CCC4C3CCC21C (stereo unspecified) [Norethisterone],9.15
11,Cc1nnc2n1-c1ccc(Cl)cc1C(c1ccccc1)=NC2 [Alprazolam],8.36
12,CCSC(=O)N1CCCCCC1 [Molinate],9.89
13,NC(=O)Nc1ccc(Cl)c(Cl)c1 [3-4-(dichlorophenyl)-urea],7.99
14,CC(=O)c1ccc2c(c1)N(CC(C)N(C)C)c1ccccc1S2 (stereo unspecified) [Aceprometazine],7.26
15,CC#CC1(O)CCC2C3CCC4=CC(=O)CCC4=C3C(c3ccc(N(C)C)cc3)CC21C (stereo unspecified) [Mifepristone],11.1
16,CC(C)NC(=O)c1ccccc1O [Salicylamide-N-Isopropyl],7.14
17,"Nc1ccc(S(=O)(=O)O)c(N)c1 [2,4-Diaminobenzenesulfonic acid]",1.36
18,NC(=O)c1c(Cl)c(Cl)cc(C(=O)O)c1Cl,3.88
19,CNC(=O)CSP(=S)(OC)OC [Dimethoate],5.23
20,CNC(C)C(=O)c1ccc(C)cc1 (stereo unspecified) [Mephedrone],4.49
